Measurements as given in US20240374646A1, “COMPOSITION FOR INHIBITING INFLAMMATION OR AGING OF STEM CELLS, AND METHOD FOR INHIBITING INFLAMMATION OR AGING BY USING SAME” (MITOIMMUNE THERAPEUTICS INC., priority 2021, published 2024).

Legend:
Assay type in all cases: cell-based, human
AKT = assay: Western blotting, AKT phosphorylation ratio (mTORC1 pathway); conditions: vs MSC control exposed to TNF-α/IFN-γ; FIG. 4D
Protocol: (§1) Further, the phosphorylation-induced activation ratios of AKT/mTOR/S6K, which represents the mTORC1 pathway, was analyzed. mTORC1 activation is known to not only induce senescence-associated phenotypes in MSCs, but also impair quiescence and sternness. In the present experiment, the phosphorylation ratio was confirmed using western blotting analysis as described below.
(§2) Proteins were extracted with a Pro-Prep protein lysis buffer (iNtRON) and quantified by a protein quantitative analysis kit (BIOMAX, Seoul, Korea). Samples were then heated in 4× Laemmli sample buffer (Bio-Rad) containing 2-mercaptoethanol (Bio-Rad), and proteins were loaded onto an 8% sodium dodecyl sulfate polyacrylamide gel and electrophoresed at 60 V for 30 minutes, and then electrophoresed at 120 V for 1 hour. […]
(§3) Immunoreactive bands were detected using an enhanced chemiluminescence detection reagent (Clarity™ Western blot substrate, Bio-Rad) and images of the bands were obtained using ImageSaver Version 6 (ATTO, Tokyo, Japan). The intensity of each band was analyzed with CA4 analyzer software (ATTO), and each experiment was performed in triplicate under the same conditions. […]

[1] = test system: TNF-α/IFN-γ-exposed hPD-MSCs; assay: Mitochondrial membrane potential and distribution, MitoSpy confocal microscopy; conditions: TNF-α/IFN-γ-exposed MSCs treated with compound; FIG. 2A
Protocol: hPD-MSCs were stained with MitoSpy Orange CMTMRos (BioLegend, SanDiego, CA, USA) to observe mitochondrial membrane potential, and stained with […]. After 72 hours with or without […] treatment, hPD-MSCs were passaged on a gelatin-coated cover glass (Sigma, St. Louis, Missouri, USA) in 12-well plates (SPL) and stained 24 hours later. The hPD-MSCs were cultured in α-MEM containing 250 nM MitoSpy Green FM and 250 nM MitoSpy Orange CMTMRo for 30 minutes. Stained hPD-MSCs were fixed with 4% paraformaldehyde (Alfa Aesar, Ward Hill, Massachusetts, USA) for 5 minutes, and then stained with 1 μg/mL Hoechst 33342® (ThermoFisher) at room temperature for 5 minutes. Finally, the cover glass was mounted on a slide glass using a mounting solution (VectaShield, ThermoFisher) and samples were imaged with a confocal microscope (LSM880; Zeiss, Oberkochen, Germany). The fluorescence intensities of confocal images were quantified using ZEN 2018 Black and Blue edition software (Zeiss). […]

S6K = assay: Western blotting, S6K phosphorylation ratio (mTORC1 pathway); conditions: vs MSC control exposed to TNF-α/IFN-γ; FIG. 4D
Protocol: as §1, §2, §3

IL-1β = assay: Real-time qPCR, SASP factor IL-1β; conditions: vs MSCs exposed to TNF-α/IFN-γ; FIG. 4A
Protocol: (§4) Real-time qPCR was performed using an Easy-Spin Total RNA Kit (iNtRON, Seongnam, Korea) to extract total RNA from hPD-MSCs and RNA concentration was adjusted to 100 ng/μL using a microplate spectrophotometer (Epoch™ Microplate Spectrophotometer, BioTek, Winooski, VT, USA), and the extracted RNA was reverse transcribed into cDNA using RT PreMix (dT20) (Bioneer, Seoul, Korea) using a SimpliAmp Thermal Cycler (Life Technologies, Carlsbad, CA, USA). Real-time qPCR was performed using a real-time PCR machine (CFX Connect, Bio-Rad, Hercules, CA, USA), SYBR Green Supermix (Bio-Rad) and the relevant primers, and all experiments were performed in triplicate for statistical analysis.
In the present experiment, the expression of IL-1β, IL-6, and monocyte chemotactic protein-1 (MCP-1), which are SASP-associated factors of the untreated MSC control, the TNF-α/IFN-γ-exposed MSC control (TI), and the experimental group treated with the example compound in the TNF-α/IFN-γ-exposed MSC control was analyzed by real-time qPCR. As the real-time qPCR analysis method, the same method described in Experimental Example 1-2 above was used, and the results are shown in FIGS. 4A to 4C.

mitofusion 1 (MFN1) = assay: Real-time qPCR, mitochondrial dynamics gene MFN1; conditions: vs TNF-α/IFN-γ-exposed MSC control (TI); FIG. 2B
Protocol: as §4
To investigate mitochondrial dynamics, real-time qPCR was performed to analyze the expression of dynamin-related protein 1 (DRP1), which is a mitochondrial division-related gene, and mitofusion 1 (MFN1) and mitofusion 2 (MFN2), which are […] mitochondrial membrane fusion-related genes. As the real-time qPCR analysis method, the same method described in Experimental Example 1-2 above was used, and the results are shown in FIG. 2B.

mTOR = assay: Western blotting, mTOR phosphorylation ratio (mTORC1 pathway); conditions: vs MSC control exposed to TNF-α/IFN-γ; FIG. 4D
Protocol: as §1, §2, §3

O=S1(=O)CCN(Cc2cc(NC3CCOCC3)c3[nH]c(-c4ccccc4)cc3c2)CC1 [example compound, 5-[(1,1-dioxido-4-thiomorpholinyl)methyl]-2-phenyl-N-(tetrahydro-2H-pyran-4-yl)-1H-indole-7-amine]
reduction of AKT phosphorylation ratio (pAKT/AKT) (AKT): about 25%
mitochondrial membrane potential and distribution [1]: restored to quiescence
reduction of S6K phosphorylation ratio (pS6K/S6K) (S6K): ~40%
decrease of IL-1β expression (IL-1β): about 55%
MFN1 expression level (mitofusion 1 (MFN1)): slightly reduced
reduction of mTOR phosphorylation ratio (pmTOR/mTOR) (mTOR): ~30%
